This is an account of results in patent US12428416B2 (California Institute of Technology, priority 2018, dated 2025).

As a reminder, the Kd is the free concentration of one partner at which half of the binding sites on the other are occupied at equilibrium, for simple one-to-one binding. Usually IC50 stands for the concentration needed to halve the response being measured.

One assay addresses ERK1 (Homo sapiens, UniProt P27361). Description: ERK1 and 2 Enzymatic Inhibition Assay (ERK1). Format: biochemical. The settings on record: 10 assay concentrations 2×10^−6 M to 6×10^−11 M, 1% DMSO. The protocol: (§1) ERK1 and 2 Enzymatic Inhibition Assay
(§2) For the Ki determination assay, 200 μM stock solutions of compounds were subjected to a serial, semi-logarithmic dilution using 100% DMSO as a solvent. 10 distinct concentrations were prepared, with a dilution endpoint of 6×10^−9 M in 100% DMSO. 100% DMSO was used as a control. 10 μL from each of the serial dilutions were aliquoted into separate wells of a 96-well plate and 90 μL of water were added to each of those wells. The plate was shaken thoroughly, and 5 μL from each of the plate's wells were transferred into wells of the assay plate. The final volume of wells in the assay plate was 50 μL. All compounds were tested at 10 assay concentrations in the range from 2×10^−6 M to 6×10^−11 M. The final DMSO concentration in the wells of the assay plate was 1% in all cases.

The next assay has as its target ERK2 (Homo sapiens, UniProt P28482). Description: ERK1 and 2 Enzymatic Inhibition Assay (ERK2). The settings on record: 10 assay concentrations 2×10^−6 M to 6×10^−11 M, 1% DMSO. The class given is biochemical. The protocol:
as §1, §2

For assay [1], the system named is drug-sensitive cell lines of Table 4. Description: Cell line growth retardation assay, average over sensitive cohort. Format: cell-based, Human. The settings on record: Homo sapiens, 144 h; geometric mean of IC50s over sensitive cohort (Table 4); 6 days growth; read-out: AvgSens IC50. The protocol:
(§3) Cell Line Growth Retardation Assay
(§4) Cells were seeded at densities of 1,000-5,000 cells per well in 48-well tissue culture plates. After a 24 h rest period, cells were treated with compound at 10 μM, 2 μM, 0.4 μM, 0.08 μM, 0.016 μM, and 0.0032 μM. A group of cells were treated with the vehicle in which the compound was prepared and served as a control. The cells were grown in the presence of compounds for 6 days and were counted on day 0 and day 6. All cell counting was performed using a Synentec Cellavista plate imager. […] Growth inhibition was calculated as a ratio of cell population doublings in the presence of compound versus the absence of compound. […] IC50 values for each compound were calculated by fitting curves to data points from each dose-response assay using the Proc NLIN function in SAS for Windows version 9.2 (SAS Institute, Inc.).
(§5) Designation of Sensitivity and Resistant Cohorts and Calculation of Average IC50 Values
(§6) Human cancer cell lines were grouped as “sensitive” or “resistant” to ERK1 inhibition based on whether their growth was retarded by KO-947 (i.e., 1,5,6,8-tetrahydro-6-(phenylmethyl)-3-(4-pyridinyl)-7H-pyrazolo[4,3-g]quinazolin-7-one) and SCH772984 (i.e., (3R)-1-[2-oxo-2-[4-[4-(2-pyrimidinyl)phenyl]-1-piperazinyl]ethyl]-N-[3-(4-pyridinyl)-1H-indazol-5-yl]-3-pyrrolidinecarboxamide) (data not shown; see Table 4). These sensitive and resistant cohorts were interrogated for response to each compound, and IC50s were calculated for each cell line using the same technique described above. Average IC50s for the sensitive and resistant cohorts were calculated as geometric means of the group.

Assay [2] concerns drug-resistant cell lines of Table 4. The assay is described as follows: Cell line growth retardation assay, average over resistant cohort. Format: cell-based, Human. The settings on record: Homo sapiens, 144 h; geometric mean of IC50s over resistant cohort (Table 4); 6 days growth; read-out: AvgRes IC50. The protocol:
as §3, §4, §5, §6

Chain of ERK2 (P28482 whole entry): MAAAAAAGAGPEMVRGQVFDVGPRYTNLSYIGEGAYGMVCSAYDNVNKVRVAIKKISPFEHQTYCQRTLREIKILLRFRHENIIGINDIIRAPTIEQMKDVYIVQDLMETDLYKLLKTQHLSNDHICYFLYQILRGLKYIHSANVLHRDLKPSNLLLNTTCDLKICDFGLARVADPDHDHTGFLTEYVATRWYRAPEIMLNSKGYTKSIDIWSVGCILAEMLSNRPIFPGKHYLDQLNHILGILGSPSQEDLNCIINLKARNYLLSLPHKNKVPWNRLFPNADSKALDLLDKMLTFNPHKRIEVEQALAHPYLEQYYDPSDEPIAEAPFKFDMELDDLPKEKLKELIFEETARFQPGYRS
Chain of ERK1 (P27361 whole entry): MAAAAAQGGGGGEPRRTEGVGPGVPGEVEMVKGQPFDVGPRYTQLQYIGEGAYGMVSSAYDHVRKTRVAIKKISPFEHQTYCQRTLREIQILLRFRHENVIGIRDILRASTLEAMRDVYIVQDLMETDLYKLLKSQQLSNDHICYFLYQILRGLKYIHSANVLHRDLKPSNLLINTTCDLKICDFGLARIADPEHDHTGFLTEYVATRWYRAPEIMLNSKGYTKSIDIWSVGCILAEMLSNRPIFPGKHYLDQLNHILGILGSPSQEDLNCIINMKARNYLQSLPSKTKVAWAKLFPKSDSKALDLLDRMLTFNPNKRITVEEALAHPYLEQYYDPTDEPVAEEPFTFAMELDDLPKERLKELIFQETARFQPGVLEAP

As for `O=C(NC(c1ccccc1)C(F)(F)F)c1ncc(-c2c[nH]c3ncc(N4CCOCC4)cc23)cn1` (stereo in doubt) [Compound 47, (S)-5-(5-morpholino-1H-pyrrolo[2,3-b]pyridin-3-yl)-N-(2,2,2-trifluoro-1-phenylethyl)pyrimidine-2-carboxamide], the dissociation constant Kd at ERK1 and at ERK2 was no more than 10 nM in each case. The half-maximal inhibitory concentration (IC50) was 251 to 500 nM in assay [1] and greater than 500 nM in assay [2].
For the molecule `CC(NC(=O)c1ncc(-c2c[nH]c3ncc(N4C[C@@H](C)O[C@@H](C)C4)cc23)cn1)c1ccccc1` (stereo in doubt) [Compound 36, 5-(5-((2R,6S)-2,6-dimethylmorpholino)-1H-pyrrolo[2,3-b]pyridin-3-yl)-N—((R)-1-phenylethyl)pyrimidine-2-carboxamide], the figures for the Kd at ERK1 and on ERK2 were no more than 10 nM and 11 to 100 nM, respectively. In addition, the IC50 in assay [1] and in assay [2] was greater than 500 nM each time.
On to `CC(NC(=O)c1ncc(-c2c[nH]c3ncc(N4CCO[C@@H](C)C4)cc23)cn1)c1ccccc1` (stereo in doubt) [Compound 37, 5-(5-((S)-2-methylmorpholino)-1H-pyrrolo[2,3-b]pyridin-3-yl)-N—((R)-1-phenylethyl)pyrimidine-2-carboxamide], for which the results for the dissociation constant Kd at ERK1 and at ERK2 were no more than 10 nM and 11 to 100 nM, respectively. For the same molecule, the half-maximal inhibitory concentration (IC50) in assay [1] and in assay [2] was greater than 500 nM each time.
Turning to `CC(NC(=O)c1ncc(-c2c[nH]c3ncc(N4CCOC(C)(C)C4)cc23)cn1)c1ccccc1` (stereo in doubt) [Compound 38, (R)-5-(5-(2,2-dimethylmorpholino)-1H-pyrrolo[2,3-b]pyridin-3-yl)-N-(1-phenylethyl)pyrimidine-2-carboxamide], the equilibrium dissociation constant (Kd) at ERK1 and at ERK2 was 11 to 100 nM in each case. The concentration for half-maximal inhibition (IC50) in assay [1] and in assay [2] was greater than 500 nM each time.
In the case of `O=C(NC(CO)c1ccccc1)c1ncc(-c2c[nH]c3ncc(N4CCOCC4)cc23)cn1` (stereo in doubt) [Compound 53, (S)—N-(2-hydroxy-1-phenylethyl)-5-(5-morpholino-1H-pyrrolo[2,3-b]pyridin-3-yl)pyrimidine-2-carboxamide], the dissociation constant (Kd) at ERK1 and at ERK2 was no more than 10 nM each time. In addition, the concentration for half-maximal inhibition (IC50) in assay [1] and in assay [2] was greater than 500 nM throughout.
As for `COc1cc(-c2cnc3[nH]cc(-c4cnc(C(=O)NC(C)c5ccccc5)nc4)c3c2)ccn1` (stereo in doubt) [Compound 41, (R)-5-(5-(2-methoxypyridin-4-yl)-1H-pyrrolo[2,3-b]pyridin-3-yl)-N-(1-phenylethyl)pyrimidine-2-carboxamide], the dissociation constant (Kd) on ERK1 and on ERK2 was no more than 10 nM throughout. Further, the IC50 in assay [1] is no more than 250 nM; in assay [2] it was greater than 500 nM.
Consider `O=C(NCc1ccccc1)c1ncc(-c2c[nH]c3ncc(N4CCOCC4)cc23)cn1` [Compound 7, N-benzyl-5-(5-morpholino-1H-pyrrolo[2,3-b]pyridin-3-yl)pyrimidine-2-carboxamide], for which the Kd is no more than 10 nM at ERK1 and 11 to 100 nM on ERK2. Also, the IC50 in assay [1] and in assay [2] was greater than 500 nM in each case.
In the case of `C[C@H](NC(=O)c1ncc(-c2c[nH]c3ncc(N4CCOCC4)cc23)cn1)c1ccccc1F` [Compound 44, (S)—N-(1-(2-fluorophenyl)ethyl)-5-(5-morpholino-1H-pyrrolo[2,3-b]pyridin-3-yl)pyrimidine-2-carboxamide], the Kd at ERK1 and at ERK2 was no more than 10 nM in each case. For the same molecule, the IC50 is no more than 250 nM in assay [1] and greater than 500 nM in assay [2].
For `O=C(NCCc1ccccn1)c1ncc(-c2c[nH]c3ncc(N4CCOCC4)cc23)cn1` [Compound 60, 5-(5-morpholino-1H-pyrrolo[2,3-b]pyridin-3-yl)-N-(2-(pyridin-2-yl)ethyl)pyrimidine-2-carboxamide], the Kd at ERK1 and on ERK2 was 11 to 100 nM in each case. Also, the IC50 in assay [1] and in assay [2] was greater than 500 nM throughout.
Regarding `O=C(c1ncc(-c2c[nH]c3ncc(N4CCOCC4)cc23)cn1)N1CCC[C@H]1c1ccccc1` [Compound 19, (S)-(5-(5-morpholino-1H-pyrrolo[2,3-b]pyridin-3-yl)pyrimidin-2-yl)(2-phenylpyrrolidin-1-yl)methanone], the dissociation constant Kd at ERK1 and at ERK2 was greater than 100 nM in each case. Also, the 50% inhibitory concentration (IC50) in assay [1] and in assay [2] was greater than 500 nM throughout.
In the case of `CN(C)CC(NC(=O)c1ncc(-c2c[nH]c3ncc(N4CCOCC4)cc23)cn1)c1ccccc1` (stereo in doubt) [Compound 57, (S)—N-(2-(dimethylamino)-1-phenylethyl)-5-(5-morpholino-1H-pyrrolo[2,3-b]pyridin-3-yl)pyrimidine-2-carboxamide], the Kd at ERK1 and on ERK2 was greater than 100 nM in each case. For the same molecule, the concentration for half-maximal inhibition (IC50) in assay [1] and in assay [2] was greater than 500 nM throughout.
For `N#Cc1ccccc1CCNC(=O)c1ncc(-c2c[nH]c3ncc(N4CCOCC4)cc23)cn1` [Compound 66, N-(2-cyanophenethyl)-5-(5-morpholino-1H-pyrrolo[2,3-b]pyridin-3-yl)pyrimidine-2-carboxamide], the Kd on ERK1 and on ERK2 was no more than 10 nM each time. In addition, the IC50 in assay [1] and in assay [2] was greater than 500 nM in each case.
Consider `CC(NC(=O)c1ncc(-c2c[nH]c3ncc(N4CCOCC4)cc23)cn1)c1ccn(C)c1` (centres unmarked) [Compound 24, N-(1-(1-methyl-1H-pyrrol-3-yl)ethyl)-5-(5-morpholino-1H-pyrrolo[2,3-b]pyridin-3-yl)pyrimidine-2-carboxamide], for which the dissociation constant (Kd) on ERK1 and on ERK2 was 11 to 100 nM each time. Besides, the IC50 in assay [1] and in assay [2] was greater than 500 nM in each case.
Regarding `CCN1C[C@H](c2ccccc2)N=C1c1ncc(-c2c[nH]c3ncc(N4CCOCC4)cc23)cn1` [Compound 51, (S)-4-(3-(2-(1-ethyl-4-phenyl-4,5-dihydro-1H-imidazol-2-yl)pyrimidin-5-yl)-1H-pyrrolo[2,3-b]pyridin-5-yl)morpholine], the Kd on ERK1 and on ERK2 was 11 to 100 nM throughout. The IC50 in assay [1] is 251 to 500 nM; in assay [2] it was greater than 500 nM.
On to `C[C@@H](NC(=O)c1ncc(-c2c[nH]c3ncc(N4CCOCC4)cc23)cn1)c1cccc(C(F)(F)F)c1` [Compound 21, (R)-5-(5-morpholino-1H-pyrrolo[2,3-b]pyridin-3-yl)-N-(1-(3-(trifluoromethyl)phenyl)ethyl)pyrimidine-2-carboxamide], for which the results for the dissociation constant Kd on ERK1 and on ERK2 were no more than 10 nM and 11 to 100 nM, respectively. In addition, the IC50 in assay [1] is 251 to 500 nM; in assay [2], greater than 500 nM.
The matching figures for `C[C@H](CNC(=O)c1ncc(-c2c[nH]c3ncc(N4CCOCC4)cc23)cn1)c1ccccc1` [Compound 32]: no more than 10 nM, no more than 10 nM, 251 to 500 nM and greater than 500 nM.
The matching figures for `O=C(NCc1ccc(C(F)(F)F)cc1)c1ncc(-c2c[nH]c3ncc(N4CCOCC4)cc23)cn1` [Compound 10, 5-(5-morpholino-1H-pyrrolo[2,3-b]pyridin-3-yl)-N-(4-(trifluoromethyl)benzyl)pyrimidine-2-carboxamide]: greater than 100 nM, greater than 100 nM, greater than 500 nM and greater than 500 nM.
